Results on two compounds are retold here after patent US20230218571A1 (Thiogenesis Therapeutics, Inc., priority 2020, published 2023).

The conditions of series [1]: administered to fasting patients; cited from earlier work.
Series [2] concerns SARS-CoV-2. Nature of the series: Syrian hamster SARS-CoV-2 infection model. Conditions: 60, 90 or 120 mg/kg per os once a day for 7 days. The class given is in vivo. Here is the method: The efficacy of cysteamine-pantetheine disulfide (compound 1) is assessed in the Syrian hamster model. Maximal clinical signs of rapid breathing, weight loss, histopathological changes from the initial exudative phase of diffuse alveolar damage with extensive apoptosis to the later proliferative phase of tissue repair, airway and intestinal involvement with virus nucleocapsid protein expression, high lung viral load, and spleen and lymphoid atrophy associated with marked cytokine activation are observed within the first week of virus challenge. The lung virus titer is between 10^5-10^7 TCID50/g. Challenged index hamsters can consistently infected naïve contact hamsters housed within the same cage, resulting in similar pathology but not weight loss. All infected hamsters can recover and develop mean serum neutralizing antibody titer ≥1:427 fourteen days post-challenge. Immunoprophylaxis with early convalescent serum can achieve significant decrease in lung viral load but not in lung pathology.
Three groups of 3 Syrian hamsters infected by SARS-CoV-2 per group receive cysteamine-pantetheine disulfide (compound 1) per os once a day for 7 days. The first group receives 60 mg/kg, second group 90 mg/kg and third group 120 mg/kg. Clinical status, biological parameters and viral load are characterized every day.

Series [3] has as its system SARS-CoV-2. Nature of the series: Single-dose/multiple dose open-label study in patients with COVID-19. Particulars: patients infected with SARS-CoV-2, end of study. It is filed as in vivo, human. The protocol:
A single-dose/multiple dose, open-labeled, non-randomized, two-period study of Cysteamine-Pantetheine Disulfide (compound 1) in […] (male and female) with COVID-19 under fasting or fed conditions is performed. Prior to treatment, patients undergo screening to determine study eligibility (Day-1).
Pharmacodynamic Evaluations: SARS-CoV-2 viral load will be obtained from samples collected from Day 0 to Day 15 according to the Schedule of Events.

`NCCS` [cysteamine, 2-aminoethanethiol]: in series [1], the “inter-patient variation in cysteamine plasma levels” value is “up to four fold”.

Take `CC(C)(CO)[C@@H](O)C(=O)NCCC(=O)NCCSSCCN` [compound 1, cysteamine-(R)-pantetheine disulfide]: in the series with SARS-CoV-2 [2], the recovery entry is listed as “more rapid recovery”, the symptoms of infection result is given as “less severe symptoms of infection” and the viral load result is recorded as “lower viral load”. Moreover, the “risk of severe COVID-19 outcomes (pneumonitis, ARDS, respiratory failure, septic shock, organ failure, cytokine storm, death)” value with SARS-CoV-2 [3] is “lower risk”.
